# Experimental data taken from doi:10.1101/2021.10.07.463234v2 (biorxiv, 2021).
# Structures can show the parent of a compound that is named as a salt. Bridge positions count the residues as written; N and C are the ends. Square brackets hold non-standard residues; d marks the D form. Peptide text beside a SMILES is read from it. * marks the point of attachment. Ileψ(thiazoline)Cys = CC[C@H](C)[C@H](N)C1=N[C@H](C(=O)*)CS1; dOrn = NCCC[C@@H](N)C(=O)O
# Target: SARS-CoV-2 Mac1 (Severe acute respiratory syndrome coronavirus 2, UniProt P0DTD1)
# Experiment: biochemical
# Conditions: 100 µM; inhibitor
row,SMILES,%inhibition [%]
1,Cc1c(-c2ccc(O)cc2)n(Cc2ccc(OCCN3CCCCCC3)cc2)c2ccc(O)cc12 [Bazedoxifene Acetate],3.518
2,Cc1c(-c2ccc(O)cc2)n(Cc2ccc(OCCN3CCCCCC3)cc2)c2ccc(O)cc12 [Bazedoxifene HCl],0
3,COc1nc2ccc(Br)cc2cc1[C@@H](c1ccccc1)[C@@](O)(CCN(C)C)c1cccc2ccccc12 [Bedaquiline fumarate],0
4,COc1nc2ccc(Br)cc2cc1[C@@H](c1ccccc1)[C@@](O)(CCN(C)C)c1cccc2ccccc12 [Bedaquiline],4.292
5,O=C(O)c1ccccc1 [Benzoic Acid],1.824
6,CC1(C)S[C@@H]2[C@H](NC(=O)Cc3ccccc3)C(=O)N2[C@H]1C(=O)O [Benzylpenicillin potassium],8.229
7,COc1ccc2cc3[n+](cc2c1OC)CCc1cc2c(cc1-3)OCO2 [Berberine Sulfate],0
8,COc1ccc2cc3[n+](cc2c1OC)CCc1cc2c(cc1-3)OCO2 [Berberine chloride],8.063
9,C[C@H]1C[C@H]2[C@@H]3CCC4=CC(=O)C=C[C@]4(C)[C@@]3(F)[C@@H](O)C[C@]2(C)[C@@]1(O)C(=O)CO [Betamethasone],1.437
10,CC(C)NCC(O)COc1ccc(CCOCC2CC2)cc1 (stereo not drawn) [Betaxolol HCl],10.86
11,CC(C)NCC(O)COc1ccc(CCOCC2CC2)cc1 (stereo not drawn) [Betaxolol],0
12,COc1ccc(NC(=O)c2ccc(C(=N)N(C)C)cc2)c(C(=O)Nc2ccc(Cl)cn2)c1 [Betrixaban maleate],3.06
13,COc1ccc(NC(=O)c2ccc(C(=N)N(C)C)cc2)c(C(=O)Nc2ccc(Cl)cn2)c1 [Betrixaban],0
14,CC(C)(C)NC(=O)N[C@H](C(=O)N1C[C@H]2[C@@H]([C@H]1C(=O)NC(CC1CCC1)C(=O)C(N)=O)C2(C)C)C(C)(C)C (stereo partly drawn) [Boceprevir],2.103

# Same assay, conditions: read-out: %inhibition
row,SMILES,inhibition at 100 µM [%]
1,CCc1cc(/C(C)=N/OCc2ccc(C3CCCCC3)c(C(F)(F)F)c2)ccc1CN1CC(C(=O)O)C1 [BAF312 (Siponimod)],26.1
2,CC[C@H](C)[C@H](N)C1=N[C@H](C(=O)N[C@@H](CC(C)C)C(=O)N[C@H](CCC(=O)O)C(=O)N[C@H](C(=O)N[C@H]2CCCCNC(=O)[C@H](CC(N)=O)NC(=O)[C@@H](CC(=O)O)NC(=O)[C@H](Cc3cnc[nH]3)NC(=O)[C@@H](Cc3ccccc3)NC(=O)[C@H]([C@@H](C)CC)NC(=O)[C@@H](CCCN)NC2=O)[C@@H](C)CC)CS1 [Bacitracin] ({Ileψ(thiazoline)Cys}-L[dE]IK[dOrn]I[dF]H[dD]N; lactam 4-C),0
3,Cc1ccc(NC(=O)c2ccc(CN3CC[C@H](N(C)C)C3)c(C(F)(F)F)c2)cc1Nc1nccc(-c2cncnc2)n1 [Bafetinib (INNO-406)],0
4,CNC1CCCN(c2c(F)cc3c(=O)c(C(=O)O)cn(C4CC4)c3c2OC)C1 (stereo not drawn) [Balofloxacin],0
5,O=C(O)CCNC(=O)c1ccc(/N=N/c2ccc(O)c(C(=O)O)c2)cc1 [Balsalazide disodium],0
6,COC(=O)[C@]12CCC(C)(C)C[C@H]1[C@H]1C(=O)C=C3[C@@]4(C)C=C(C#N)C(=O)C(C)(C)[C@@H]4CC[C@@]3(C)[C@]1(C)CC2 [Bardoxolone Methyl],16.4
7,"CCS(=O)(=O)N1CC(CC#N)(n2cc(-c3ncnc4[nH]ccc34)cn2)C1 [Baricitinib (LY3009104, INCB028050)]",28.1
8,CNC(=O)[C@H](Cc1ccccc1)NC(=O)[C@H](CC(C)C)[C@H](CSc1cccs1)C(=O)NO [Batimastat (BB-94)],0
9,CCC(=O)OCC(=O)[C@@]1(OC(=O)CC)[C@@H](C)C[C@H]2[C@@H]3CCC4=CC(=O)C=C[C@]4(C)[C@@]3(Cl)[C@@H](O)C[C@@]21C [Beclomethasone dipropionate],0
10,O=C(/C=C/c1cccc(S(=O)(=O)Nc2ccccc2)c1)NO [Belinostat (PXD101)],20
11,CCC1(C)CC(=O)NC(=O)C1 [Bemegride],0
12,CCN(CC)CCOC(=O)C(O)(c1ccccc1)c1ccccc1 [Benactyzine hydrochloride],0
13,CCOC(=O)[C@H](CCc1ccccc1)N[C@H]1CCc2ccccc2N(CC(=O)O)C1=O [Benazepril HCl],0
14,O=C(O)COc1nn(Cc2ccccc2)c2ccccc12 [Bendazac],3.85
15,NS(=O)(=O)c1cc2c(cc1C(F)(F)F)NC(Cc1ccccc1)NS2(=O)=O (stereo not drawn) [Bendroflumethiazide],0
16,CC(COc1ccccc1Cc1ccccc1)N1CCCCC1 (stereo not drawn) [Benproperine phosphate],0
17,NC(CO)C(=O)NNCc1ccc(O)c(O)c1O (stereo not drawn) [Benserazide HCl],7.42
18,O=C(O)c1ccc(NC(=O)[C@H](Cc2ccc(O)cc2)NC(=O)c2ccccc2)cc1 [Bentiromide],3.94
19,CCc1oc2ccccc2c1C(=O)c1cc(Br)c(O)c(Br)c1 [Benzbromarone],6.57
20,O=C(Cn1ccnc1[N+](=O)[O-])NCc1ccccc1 [Benznidazole],0
21,CCOC(=O)c1ccc(N)cc1 [Benzocaine hydrochloride],0
22,NS(=O)(=O)c1cc2c(cc1Cl)N=C(CSCc1ccccc1)NS2(=O)=O [Benzthiazide],0
23,CN(C)CCCOc1nn(Cc2ccccc2)c2ccccc12 [Benzydamine HCl],4.5
24,OCc1ccccc1 [Benzyl alcohol],0
25,O=C(OCc1ccccc1)c1ccccc1 [Benzyl benzoate],0
26,O=C(O)CCCN1CCC(O[C@@H](c2ccc(Cl)cc2)c2ccccn2)CC1 [Bepotastine Besilate],15
27,N[C@@H]1CCCCN(c2c(F)cc3c(=O)c(C(=O)O)cn(C4CC4)c3c2Cl)C1 [Besifloxacin HCl],0
28,CC1=C(/C=C/C(C)=C/C=C/C(C)=C/C=C/C=C(C)/C=C/C=C(C)/C=C/C2=C(C)CCCC2(C)C)C(C)(C)CCC1 [Beta Carotene],7.3

row,SMILES,inhibition at 100 µM [%]
1,CNCCc1ccccn1 [Betahistine mesylate],0
2,C[N+](C)(C)CC(=O)O [Betaine],0
3,CCC(=O)OCC(=O)[C@@]1(OC(=O)CC)[C@@H](C)C[C@H]2[C@@H]3CCC4=CC(=O)C=C[C@]4(C)[C@@]3(F)[C@@H](O)C[C@@]21C [Betamethasone Dipropionate],5.5
4,CCCCC(=O)O[C@]1(C(=O)CO)[C@@H](C)C[C@H]2[C@@H]3CCC4=CC(=O)C=C[C@]4(C)[C@@]3(F)[C@@H](O)C[C@@]21C [Betamethasone Valerate],0
5,O=C(O)CCNC(=O)c1ccccc1 [Betamipron],7.69
6,CC(C[N+](C)(C)C)OC(N)=O (stereo not drawn) [Bethanechol chloride],0
7,COc1ccc(CCNCC(O)COc2cccc(C)c2)cc1OC (stereo not drawn) [Bevantolol hydrochloride],17.4
8,C=C(c1ccc(C(=O)O)cc1)c1cc2c(cc1C)C(C)(C)CCC2(C)C [Bexarotene],0
9,CC(C)(Oc1ccc(CCNC(=O)c2ccc(Cl)cc2)cc1)C(=O)O [Bezafibrate],9.85
10,C[C@@H](O)[C@H]1C(=O)N2C(C(=O)[O-])=C(SC3Cn4cnc[n+]4C3)[C@H](C)[C@H]12 (stereo partly drawn) [Biapenem],5.82
11,CC(O)(CS(=O)(=O)c1ccc(F)cc1)C(=O)Nc1ccc(C#N)c(C(F)(F)F)c1 (stereo not drawn) [Bicalutamide],0
12,c1ccc(-c2ccc(C(c3ccccc3)n3ccnc3)cc2)cc1 (stereo not drawn) [Bifonazole],37
13,CCOCCn1c(C2CCN(CCc3ccc(C(C)(C)C(=O)O)cc3)CC2)nc2ccccc21 [Bilastine],0
14,CCNC(=O)CCC/C=C\C[C@@H]1[C@@H](/C=C/[C@@H](O)CCc2ccccc2)[C@H](O)C[C@@H]1O [Bimatoprost],0
15,"Cn1cnc2c(F)c(Nc3ccc(Br)cc3F)c(C(=O)NOCCO)cc21 [Binimetinib (MEK162, ARRY-162, ARRY-438162)]",24
16,O=C(O)CCCC[C@@H]1SC[C@@H]2NC(=O)N[C@@H]21 [Biotin (Vitamin B7)],0
17,CC[C@H](NC(=O)[C@H](C)NC)C(=O)N1C[C@@H](O)C[C@H]1Cc1c(-c2[nH]c3cc(F)ccc3c2C[C@@H]2C[C@H](O)CN2C(=O)[C@H](CC)NC(=O)[C@H](C)NC)[nH]c2cc(F)ccc12 [Birinapant],3.17
18,CC(=O)Oc1ccc(C(c2ccc(OC(C)=O)cc2)c2ccccn2)cc1 [Bisacodyl],0
19,CC(C)NCC(O)COc1ccc(COCCOC(C)C)cc1 (stereo not drawn) [Bisoprolol fumarate],0
20,Oc1c(Cl)cc(Cl)cc1Sc1cc(Cl)cc(Cl)c1O [Bithionol],0
21,C[C@H](Oc1ccc(S(C)(=O)=O)cc1C(=O)N1CCN(c2ncc(C(F)(F)F)cc2F)CC1)C(F)(F)F [Bitopertin],0
22,Cc1c(N)nc([C@H](CC(N)=O)NC[C@H](N)C(N)=O)nc1C(=O)N[C@H](C(=O)N[C@H](C)[C@@H](O)[C@H](C)C(=O)N[C@H](C(=O)NCCc1nc(-c2nc(C(=O)NCCC[S+](C)C)cs2)cs1)[C@@H](C)O)[C@@H](O[C@@H]1O[C@@H](CO)[C@@H](O)[C@H](O)[C@@H]1O[C@H]1O[C@H](CO)[C@@H](O)[C@H](OC(N)=O)[C@@H]1O)c1cnc[nH]1 [Bleomycin sulfate],0
23,CC(C)C[C@H](NC(=O)[C@H](Cc1ccccc1)NC(=O)c1cnccn1)B(O)O [Bortezomib (PS-341)],54.2
24,COc1ccccc1Oc1c(NS(=O)(=O)c2ccc(C(C)(C)C)cc2)nc(-c2ncccn2)nc1OCCO [Bosentan Hydrate],0.962
25,COc1cc(Nc2c(C#N)cnc3cc(OCCCN4CCN(C)CC4)c(OC)cc23)c(Cl)cc1Cl [Bosutinib (SKI-606)],55.6
26,O=c1ccc2ccc(OCCCCN3CCN(c4cccc5sccc45)CC3)cc2[nH]1 [Brexpiprazole],0
27,Brc1c(NC2=NCCN2)ccc2nccnc12 [Brimonidine Tartrate],19.3
